Data: paper PMC3414753, “Oleamide activates peroxisome proliferator-activated receptor gamma (PPARγ) in vitro” (2012)

Legend:
PPARα = molecular target: T1, PPARα (Homo sapiens, UniProt Q07869); experiment: LanthaScreen TR-FRET competitive binding assay; displacement incomplete at […]
T1 construct: gene PPARA
T1 sequence (Q07869 196-468 limits assumed): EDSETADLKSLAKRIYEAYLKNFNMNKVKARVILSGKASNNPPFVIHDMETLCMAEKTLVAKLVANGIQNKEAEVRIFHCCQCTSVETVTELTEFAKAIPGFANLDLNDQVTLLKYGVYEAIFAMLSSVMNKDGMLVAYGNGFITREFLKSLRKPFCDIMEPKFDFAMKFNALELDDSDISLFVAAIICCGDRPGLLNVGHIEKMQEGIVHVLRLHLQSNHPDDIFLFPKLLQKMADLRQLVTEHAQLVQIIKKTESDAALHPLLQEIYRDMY

PPARγ = molecular target: T2, PPARγ (Homo sapiens, UniProt P37231); experiment: biochemical; assay type: binding
T2 construct: gene PPARG
T2 sequence (P37231 232-505 limits assumed): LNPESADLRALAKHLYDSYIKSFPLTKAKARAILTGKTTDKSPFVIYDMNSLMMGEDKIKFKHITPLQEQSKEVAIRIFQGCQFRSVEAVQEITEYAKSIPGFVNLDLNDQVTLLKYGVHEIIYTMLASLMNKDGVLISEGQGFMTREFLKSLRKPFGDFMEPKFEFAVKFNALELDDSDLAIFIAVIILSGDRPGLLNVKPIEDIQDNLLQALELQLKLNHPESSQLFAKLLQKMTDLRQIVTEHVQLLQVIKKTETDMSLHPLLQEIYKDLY

PPARβ = molecular target: T3, PPARβ (Homo sapiens, UniProt Q03181); experiment: LanthaScreen TR-FRET competitive binding assay; displacement incomplete at […]
T3 construct: gene PPARD
T3 sequence (Q03181 171-441 limits assumed): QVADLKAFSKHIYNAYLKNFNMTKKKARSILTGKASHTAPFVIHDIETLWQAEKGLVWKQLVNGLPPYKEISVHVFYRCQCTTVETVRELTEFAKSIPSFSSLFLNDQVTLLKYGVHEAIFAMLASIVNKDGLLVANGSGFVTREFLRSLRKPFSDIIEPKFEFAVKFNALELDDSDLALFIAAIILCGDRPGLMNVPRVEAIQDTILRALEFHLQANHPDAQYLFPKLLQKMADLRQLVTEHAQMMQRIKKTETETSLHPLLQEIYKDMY

IC50 (PPARγ): ~38 µM
Structure (SMILES): CCCCCCCC/C=C\CCCCCCCC(N)=O [ODA, (Z)-octadec-9-enamide]
LanthaScreen TR-FRET competitive binding assay; displacement incomplete at 100 μ (PPARα): ODA evoked concentration-dependent displacement of fluorescent ligand from each receptor binding site, displacement at PPARα and PPARβ was incomplete
LanthaScreen TR-FRET competitive binding assay; displacement incomplete at 100 μ (PPARβ): ODA evoked concentration-dependent displacement of fluorescent ligand from each receptor binding site, displacement at PPARα and PPARβ was incomplete
